Consider seven substances from patent publication US8110543B2, “Anti-invasive and anti-angiogenic compositions” (Angstrom Pharmaceuticals, Inc., priority 1997, dated 2012).

One test deals with Mat B-III tumors. Description: Rat syngeneic Mat B-III breast cancer model. Particulars: comparative analysis of related peptides. Format: in vivo. On the procedure:
The effects of the compounds are tested on tumor progression in a rat syngeneic model of breast cancer (Xing and Rabbani, 1996). Mat BIII rat breast tumor cells (1×10^6 cells in PBS, 0.1 mL per rat) are inoculated into the mammary fat pads of female Fisher rats. The test compound is dissolved in PBS (200 mM stock), sterile filtered and dispensed in vivo at a dose of up to about 100 mg/kg/day) using a 14-day Alza osmotic mini-pump implanted intraperitoneally at the time of inoculation. Control animals receive vehicle (PBS) alone. Animals are euthanized at day 14 and examined for metastasis in the spleen, lungs, liver, kidney and lymph nodes. In addition, the primary tumors are excised, quantitated, and prepared for immunohistochemistry.
The rat syngeneic breast cancer system (Xing and Rabbani, 1996) employs Mat BIIIrat breast cancer cells. When Mat B-III cells (1×10^6 cells) are inoculated into the mammary fat pad of female Fisher rats, they form large tumors which metastasize to regional lymph nodes (LNs) and other distal sites within 14-20 days.
Å6 was initially delivered prophylactically (infusion starting on the day of tumor inoculation) using an Alzet mini-pump that delivered 75 mg/kg/day. […] Metastasis was quantitated by counting the number of macroscopic foci without regard for their size.
Estrogen receptor-positive Mat B-III tumors were used to test combination treatment with Å6 (75 mg/kg/day) and TAM (3 mg/kg/day). In contrast to previous studies, the Mat B-III tumors (inoculated in the mammary fat pad) were staged to 40-50 mm^3 prior to the initiation of treatment. Treatment was continued for 8 days during which time primary tumor growth was measured using calipers (FIG. 14).

The subject of the next test is 3LL cells. Description: Tumor angiogenesis (microvessel density) in 3LL model. The format is in vivo, Mice. The conditions noted are these: 100-250 mg/kg/day; compared to controls. On the procedure:
Angiogenesis is measured by determining microvessel density using immunostaining for CD31 (also known as platelet-endothelial cell adhesion molecule or PECAM). Results are reported as the average microvessel density of 5 fields each from 5 different sections (Penfold et al., 1996). Typically, the whole tumor is excised, sectioned and the sections examined histologically for microvessel density using appropriate stains or labels for other markers.
Angiogenesis induced by tumor growth and metastasis in vivo is examined in the models systems described above. Mice injected with 3LL cells are treated either with peptide or with vehicle and are sacrificed at various time points. Angiogenesis is assessed by determining microvessel density (MVD) using an antibody specific for microvascular endothelium or other markers of growing blood vessels, such as PECAM (CD31). Such an antibody is employed in conventional immunohistological methods to immunostain tissue sections as described by Penfold et al., supra. A large number of such antibodies is commercially available, for example the JC70 mAb. The MVD are correlated with other measures of tumor behavior including lymph node status and primary tumor size and rate of growth. In humans as reported by Penfold et al., supra, tumor MVD correlates with lymph node metastasis and is independent of tumor size, growth rate or type of histological differentiation.
The compounds are given i.v., i.p., or by osmotic minipump Typical dosages are 100-250 mg/kg/day. At various time points, two animals are sacrificed, and the tumor tissue and surrounding tissue is prepared for histological examination. Results are reported as the average microvessel density of 5 fields each from 5 different sections. The following seven compounds are tested: Ac-[…]-Am (SEQ ID NO:2), Ac-[…]-Am (SEQ ID NO: 6) (disubstitution variant at positions 3 and 4), Ac-[…]-Am (SEQ ID NO: 7) (disubstitution variant at positions 7 and 8), Ac-[…]-Am (SEQ ID NO: 8) (substitution variant at position 1), Ac-PSSPPEE-Am (SEQ ID NO: 4) (deletion variant, position 1 of SEQ ID NO:2 deleted), Ac-KPSSPPE-Am (SEQ ID NO: 5) (deletion variant, position 8 of SEQ ID NO:2 deleted), and Ac-[…]-Am (SEQ ID NO:1).

The subject of the next test is PC-3 cells. Put plainly: PC-3 CAT metastasis model. Format: in vivo, mice. The conditions noted are these: minipump 100 mg/kg/day, 14 or 21 days. The protocol:
The compounds of this invention are also tested for inhibition of late metastasis using an experimental metastasis model (Crowley et al., 1993). Late metastasis involves the steps of attachment and extravasation of tumor cells, local invasion, seeding, proliferation and angiogenesis.
Human prostatic carcinoma cells (PC-3) transfected with a reporter gene, preferably the green fluorescent protein (GFP) gene, but as an alternative with a gene encoding the enzymes chioramphenicol acetyl-transferase (CAT), luciferase or LacZ. This permits utilization of either of these markers (fluorescence detection of GFP or histochemical colorimetric detection of enzymatic activity) for following the fate of these cells. Cells are injected, preferably iv, and metastases identified after about 14 days, particularly in the lungs but also in regional lymph nodes, femurs and brain. This mimics the organ tropism of naturally occurring metastases of prostate cancer. For example, GFP-expressing PC-3 cells (1×10^6 cells per mouse) are injected iv into the tail veins of nude (nu/nu) mice. Animals are also implanted with mini-pumps (sub-dermally on the back) dispensing either the test compound (at least about 100 mg/kg/day) or vehicle. The animals are euthanized after 14 days and their organs prepared for histological examination. Single metastatic cells and foci are visualized and quantitated by fluorescence microscopy or light microscopic histochemistry or by grinding the tissue and quantitative colorimetric assay of the detectable label.
(§1) In addition to Å6, other related peptide compounds described above are tested for efficacy in vivo in the 3LL model (as provided above) as well as the PC-3 model. PC-3 cells transfected with the gene encoding the enzyme chloramphenicol acetyl-transferase (CAT) are inoculated into mice i.v. at doses of 1×10^6 cells per mouse. These mice are implanted with a minipump, as above, which dispenses 100 mg/kg/day of the peptide or vehicle over a period of 14 or 21 days. At termination of treatment, the animals are euthanized and the tumor marker probe is assayed in regional lymph nodes, femurs, lungs, and brain.

In the next test the test system is 3LL. Put plainly: 3LL metastasis model, related peptides. On the set-up: species or system mice. Particulars: mouse, in vivo.
Excerpt: This model has been utilized by a number of investigators. See, for example, Gorelik, E. et al., J. Nat'l. Canc. Inst. 65:1257-1264 (1980); Gorelik, E. et al., Rec. Results Canc Res. 75:20-28 (1980); Isakov, N. et al., Invasion Metas. 2:12-32 (1982); Talmadge J. E. et al., J. Nat'l. Canc. Inst. 69:975-980 (1982); Hilgard, P. et al, Br. J. Cancer 35:78-86 (1977)). Test mice are male C57BL/6 mice, 2-3 months old. Following sc, im, or intra-footpad implantation, this tumor produces metastases, preferentially in the lungs. With some lines of the tumor, the primary tumor exerts anti-metastatic effects and must first be excised before study of the metastatic phase (see also U.S. Pat. No. 5,639,725).
Single-cell suspensions are prepared from solid tumors by treating minced tumor tissue with a solution of 0.3% trypsin. Cells are washed 3 times with PBS (pH 7.4) and suspended in PBS. Viability of the 3LL cells prepared in this way is generally about 95-99% (by trypan blue dye exclusion). Viable tumor cells (3×10^4-5×10^6) suspended in 0.05 ml PBS are injected subcutaneously, either in the dorsal region or into one hind foot pad of C57BL/6 mice. Visible tumors appear after 3-4 days after dorsal sc injection of 10^6 cells. The day of tumor appearance and the diameters of established tumors are measured by caliper every two days.
The treatment is given as one or two doses of peptide or derivative, per week. In another embodiment, the peptide is delivered by osmotic minipump.
Lungs are removed and weighed. Lungs are fixed in Bouin's solution and the number of visible metastases is recorded. The diameters of the metastases are also measured using a binocular stereoscope equipped with a micrometer-containing ocular under 8× magnification. On the basis of the recorded diameters, it is possible to calculate the volume of each metastasis. To determine the total volume of metastases per lung, the mean number of visible metastases is multiplied by the mean volume of metastases. To further determine metastatic growth, it is possible to measure incorporation of ^125IdUrd into lung cells (Thakur, M. L. et al., J. Lab. Clin. Med. 89:217-228 (1977). Ten days following tumor amputation, 25 μg of fluorodeoxyuridine is inoculated into the peritoneums of tumor-bearing (and, if used, tumor-resected mice). After 30 min, mice are given 1 μCi of ^125IdUrd (iododeoxyuridine). One day later, lungs and spleens are removed and weighed, and a degree of ^125IdUrd incorporation is measured using a gamma counter.
as §1

The subject of test [1] is human prostate cancer line PC-3. Put plainly: Matrigel invasion assay, PC-3 cells. Format: cell-based. The conditions noted are these: 5 μM (FIG. 1, FIG. 2). On the procedure: Several peptides were tested for anti-invasive capacity in a Matrigel® invasion assay system as indicated above (Kleinman et al., supra; Parish et al., supra). Several invasive human tumor lines (PC-3, MDA-MB-231) and non-human tumors (3LL, Mat B-III) were examined. The rat breast cancer line Mat B III and the human prostate cancer line PC-3 were initially used.
Tumor cells (5×10^5/mL, in a volume of 200 μL) in serum-free RPMI 1640 medium were added to a disposable transwell invasion chamber coated with Matrigel® (Becton Dickinson, Lincoln Park, N.J.). The invasion chambers were placed in 24-well tissue culture plates filled with serum-free RPMI-1640 and the plates were placed in an atmosphere of 5% CO2 in humidified air at 37° C. for 48-72 hours. The chambers were then removed, inverted, and the cells which had invaded (and now appeared on the bottom face of the invasion chamber) were fixed and stained using Diff-Quick® (Scientific Products). Cells were counted in 10 different fields on each filter and an average obtained.

In the case of “Ac-KPSSPPDD-Am: disubstitution variant at positions 7 and 8 (SEQ ID NO: 7) (Ac-KPSSPPDD-NH2)”, in the test with Mat B-III tumors, the “number of metastases in the spleen, lungs, liver, kidney and lymph nodes” value (“number of metastases in the spleen” for short) is listed as “significant reduction”; the “size of the primary tumor” value was “significant reduction”. The “number of microvessels in the region of the primary tumor” value (from here on “number of microvessels”) in the test on 3LL cells is on record as “significant reduction”. Moreover, the “metastasis, PC-3 model” value in the test with PC-3 cells is “markedly inhibited”. Moreover, the “metastasis, 3LL model” value in the test on 3LL was “markedly inhibited”.

Regarding “Ac-KPSSPPEELK-Am: capped counterpart of KPSSPPEELK (SEQ ID NO: 1) (Ac-KPSSPPEELK-NH2) [reference compound]”, in the test on Mat B-III tumors, the “number of metastases in the spleen” value is “fail to cause a significant change”; the “size of the primary tumor” value is reported as “fail to cause a significant change”. Moreover, in the test on 3LL cells, the “number of microvessels” value is given as “no significant effect”. Also, the “metastasis, PC-3 model” value in the test with PC-3 cells was “no reduction”. Further, the “metastasis, 3LL model” value in the test on 3LL is “no reduction”.

On to “Ac-KPTTPPEE-Am: disubstitution variant at positions 3 and 4 (SEQ ID NO: 6) (Ac-KPTTPPEE-NH2)”, for which, in the test on Mat B-III tumors, the “number of metastases in the spleen” value was “significant reduction”; the “size of the primary tumor” value is given as “significant reduction”. Also, the “number of microvessels” value in the test on 3LL cells is listed as “significant reduction”. Moreover, the “metastasis, PC-3 model” value with PC-3 cells was “markedly inhibited”. In addition, the “metastasis, 3LL model” value in the test with 3LL was “markedly inhibited”.

Turning to “Ac-Lys-Pro-Ser-Ser-Pro-Pro-Glu-Am (Ac-KPSSPPE-NH2) [Ac-KPSSPPE-Am]”, in the test on Mat B-III tumors, the “number of metastases in the spleen” value is listed as “fail to cause a significant change”; the “size of the primary tumor” value was “fail to cause a significant change”. The “number of microvessels” value in the test with 3LL cells is on record as “no significant effect”. Also, the “metastasis, PC-3 model” value in the test with PC-3 cells was “no reduction”. Besides, in the test with 3LL, the “metastasis, 3LL model” value is “no reduction”.

Turning to “Ac-Pro-Ser-Ser-Pro-Pro-Glu-Glu-Am (Ac-PSSPPEE-NH2) [Ac-PSSPPEE-Am]”, in the test with Mat B-III tumors, the “number of metastases in the spleen” value is on record as “fail to cause a significant change”; the “size of the primary tumor” value was “fail to cause a significant change”. Moreover, the “number of microvessels” value in the test on 3LL cells is recorded as “no significant effect”. For the same substance, the “metastasis, PC-3 model” value with PC-3 cells is “no reduction”. Also, the “metastasis, 3LL model” value in the test on 3LL was “no reduction”.

With “Ac-RPSSPPEE-Am: substitution variant at position 1 (SEQ ID NO: 8) (Ac-RPSSPPEE-NH2)”, in the test with Mat B-III tumors, the “number of metastases in the spleen” value is on record as “significant reduction”; the “size of the primary tumor” value is recorded as “significant reduction”. Also, the “number of microvessels” value in the test with 3LL cells is listed as “significant reduction”. Besides, the “metastasis, PC-3 model” value in the test with PC-3 cells was “markedly inhibited”. Also, in the test on 3LL, the “metastasis, 3LL model” value is listed as “markedly inhibited”.

As for “KPSSPPEELK [Lys-Pro-Ser-Ser-Pro-Pro-Glu-Glu-Leu-Lys, reference compound]”, in test [1], the “in vitro invasion of PC-3 cells in a Matrigel system” value is “inactive”.
